Reference: paper PMC7125202, “Targeting of radioactive platinum-bisphosphonate anticancer drugs to bone of high metabolic activity” (Scientific Reports, 2020)

Legend:
genomic DNA = experiment: Pt-DNA adducts quantification using High Resolution ICP-MS; assay type: in vivo, C57Bl/6N mice; details: 24 h after i.v. injection
From the text: The remaining half of the tissues from all mice were dissected and weighed for DNA extraction. DNA was isolated using DNeasy Blood & Tissue Kit (Qiagen, USA) for soft tissue and ChargeSwitch® gDNA Plant Kit (Thermofisher, USA) for bone samples. The DNA was digested with DNase I Solution (Thermofisher, USA) and filtered using 0.2 µm acrodisc GHP before analysis for Pt content using high resolution-ICP-MS (Element2, Thermo Finnigan). The detection limit for determining the platinum concentration was 2 ng/l. The standard solutions were prepared from 1000 mg·1^−1 platinum ICP standard Certipur (1.70341.0100, Merck) ranging from 5 ppt to 10 ppb. The selected isotopes for platinum were ^194Pt and ^195Pt. Furthermore, thallium (Tl) was added as an internal standard and determined at a molecular mass of 205 Da, which was prepared using a 1000 mg·1^−1 thallium standard (CGTL-1, Inorganic Ventures) to correct for matrix effects and long-term fluctuations of the analytical signal. The Pt-DNA adduct concentration is represented as percentage of Pt involved in adduct formation to the total amount of Pt accumulated in the specific tissue.

[1] = In vivo biodistribution of cold Pt-species, Pt quantified by ICP-MS; set-up: species or system C57Bl/6N mice; details: 24 h after i.v. injection, 2.5 mM Pt
Description: The Pt-BP and Pt(NO3)2(en) complexes were administered intravenously in the tail vein of C57BL/6N mice (n = 5 per each platinum complex). Sterile saline solution (0.9% NaCl) was used to dissolve platinum complexes. The concentration of injected Pt-BP or Pt(NO3)2(en) solutions was 2.5 mM platinum, calculated based on the maximum tolerated dose for cisplatin of 6 mg per kg body weight of the mice[37]. The mice were euthanized with CO2 24 h after injection, after which blood (approximately 600 mg per mouse), liver, spleen, kidneys, heart, lungs, and bones (femur, humerus, tibia, and spine) were harvested. Approximately half of the tissues were prepared for inductively coupled plasma-mass spectrometry (ICP-MS) analysis by digestion in 65% (v/v) nitric acid at 75 °C for approximately three days until the tissues were digested completely. Each tissue was cut into three samples and the samples were weighed prior to digestion in nitric acid. The digested solutions were diluted with up to 6 ml of Milli-Q water to obtain 2% (v/v) nitric acid in order to measure platinum concentrations by ICP-MS (X series I, Thermo Electron Corporation). The detection limit for determining platinum concentration with ICP-MS was 1 ppb. The standard solutions were prepared from 1000 mg·1^−1 platinum ICP standard Certipur (1.70341.0100, Merck) ranging from 1 ppb to 2500 ppb. The measured isotopes for platinum were ^194Pt, ^195Pt, ^196Pt, and ^198Pt. Furthermore, scandium (^45Sc) was added as an internal standard, which was prepared with 1000 mg·1^−1 scandium standard Certipur (1.19513.0100, Merck) to correct for matrix effects and long-term fluctuations of the measurement signal. The platinum concentrations in the various tissues were calculated relative to 1 mg of the specific tissue and represented as ng Pt/mgtissue. Three replicates of Pt-BP and Pt(NO3)2(en) solutions with volumes and platinum concentrations identical to the solutions injected to the mice (200 µl and 2.5 mM platinum, respectively) were also analyzed for their platinum content using ICP-MS as control. The percentage of injected dose (%ID) of Pt-BP and Pt(NO3)2(en) in each mouse tissue 24 h after injection was calculated by dividing the total amount of platinum per tissue through the total amount of platinum detected in the control solutions[52].

[2] = Laser ablation ICP-MS imaging of Pt co-localization with calcium in mice tibia; assay type: in vivo; details: proximal tibia sections; for percentage of Pt co-localized with calcium: LA-ICP-MS
Description: The experimental procedure was carried out as reported previously. The mice tibias were incubated in neutral buffered formaldehyde for 36 h. Later, tibias were dehydrated in ascending grades of 70% to 100% ethanol and embedded in poly(methyl methacrylate) (pMMA) resin, freshly prepared by mixing 600 mL of methyl methacrylate monomer (Acros Organics BVBA, Geel, Belgium), 60 ml dibutyl phthalate (Merck KGaA, Darmstadt, Germany) and 1.25 g perkadox®16 (Aldrich, Netherlands). The polymerization was followed by cutting serial horizontal sections (perpendicular to the tibia sample) of 5 µm thickness within the trabecular region of interest using an RM2155 microtome with a TC 65 blade (Leica Microsystems GmbH, Wetzlar, Germany). Microscopic images were obtained using an inverted fluorescence/bright field microscope (BZ-9000, Keyence Deutschland GmbH, Neu-Isenburg, Germany). For image recording and processing, the software BZ-II Viewer and BZ-II Analyzer were used, respectively. To calculate the percentage of platinum co-localized with calcium, the background of the image and all pixels without hard bone tissue were excluded from the calculations. A pixel is considered to be background if its calcium intensity is below 15%. The platinum concentrations of the remaining pixels were then added up and divided by the sum of the entire platinum image to yield the percentage of platinum co-localized with calcium.

[3] = In vivo biodistribution of radioactive Pt-species, excised tissues by gamma counting; set-up: species or system C57BL/6N mice; details: 11.2 MBq i.v.
From the text: (§1) The ^195mPt-BP and ^195mPt(NO3)2(en) complexes were reconstituted in sterile saline solution (0.9% NaCl) and administered intravenously in the tail vein of C57BL/6N mice (n = 5 per each platinum complex). All mice received an intravenous injection with a dose of 11.2 ± 0.4 MBq ^195mPt. Immediately after injection and 1, 3, and 7 days after injection, images were acquired with U-SPECT-II/CT(MILabs) as reported previously[54],[55]. Mice were scanned under general anesthesia (isoflurane/O2) for 15 to 60 minutes using the 1.0-mm diameter pinhole mouse high sensitivity collimator tube, followed by a CT scan (spatial resolution […], 65 kV, […]) for anatomical reference. Scans were reconstructed with MILabs reconstruction software using an ordered-subset expectation maximization algorithm, with a voxel size of 0.4 mm. SPECT/CT scans were analyzed and maximum intensity projections were created using the Inveon Research Workplace software (IRW, version 4.1). A 3D volume of interest was drawn using CT threshold to differentiate soft tissue from skeletal tissue and uptake was quantified as the percentage injected dose per gram (%ID/g), assuming a tissue density of 1 g/cm^3. The hot spot in the skeletal tissue region of interest (ROI) was chosen with the location of the edge of the ROI contour representing 75% of maximum intensity. The mice from ^195mPt(NO3)2(en) group were euthanized with CO2 after 3 days due to excessive loss of body weight, whereas mice from treated with ^195mPt-BP were sacrificed at the end of experiments. After euthanizing the animals, blood (approximately 600 mg per mouse), liver, spleen, kidneys, heart, lungs, and bones (femur, humerus, tibia, and spine) were harvested and analyzed with a gamma counter (1470 Wizard, Perkin Elmer).

[4] = micro-SPECT/CT quantification of 195mPt biodistribution; assay type: in vivo, C57BL/6N mice
From the text: as §1

[5] = Body weight, behaviour and toxicity of mice after injection of radioactive Pt-species; assay type: in vivo, C57BL/6N mice; details: for body weight and behavioral changes: 11.2 ± 0.4 MBq 195mPt i.v., first 3 days p.i. for 195mPt(NO3)2(en)
Description: All in vivo work was conducted in accordance with ISO standards and the principles set forth by the Revised Dutch Act on Animal Experimentation. The in vivo experiments were approved by the institutional Animal Welfare Committee of the Radboud University Medical Center (Radboudumc), Nijmegen, the Netherlands. For both the experiment, 10 male C57Bl/6N mice (Charles River), with an average weight of ~25 g and an age of approximately 6–8 weeks were housed in filter-topped cages (5 mice per cage) under non-sterile standard conditions provided with standard animal food and water ad libitum. The mice were allowed to adapt to laboratory conditions for 1 week before experimental use. The humane end point were defined as follows, body weight gain of> 20% within 10 days, no water or food intake, weight loss of >15% within 1–2 days or> 20% of normal body weight of that animal, serious circulatory or respiratory problems, behavioural changes (hyperactivity, passive, auto-mutilation), and morbidities such as impaired mobility or lethargy.
as §1, with “The mice from ^195mPt(NO3)2(en) group were euthanized with CO2 after 3 days due to excessive loss of body weight, whereas mice from treated with ^195mPt-BP were sacrificed at the end of experiments.” left out

[6] = Whole-body 195mPt radioactivity in mice measured using an ionization chamber; assay type: in vivo; details: day 7
From the text: Figure S3. ^195mPt radioactivity in mice. Percentage of injected dose (%ID) of ^195mPt-BP and ^195mPt(NO3)2(en) in mice, measured using an ionization chamber. ** P < 0.01; ****P < 0.0001 as determined by two-way ANOVA with a Bonferroni (multiple comparisons) post-hoc test.

Ehrlich solid carcinoma = test system: Ehrlich solid carcinoma; set-up: method as in doi:10.1007/s10967-015-4053-1; details: cited from earlier work
zebrafish embryos = experiment: Phenotypic assessment of drug-treated zebrafish embryos; assay type: in vivo, zebrafish (Danio rerio); details: Pt-BP 5-100 µM, cisplatin 30 µM
Description: The zebrafish (Danio rerio) strains were kept under standard conditions (28 °C in E3 buffer) until 48 hours post fertilization (hpf) as described previously. All animal experiments were conducted at larval stages before the point of independent feeding and were in agreement with the animal protection law (Tierschutzgesetz).
48 hpf wildtype embryos were separated into 6 groups (n = 20 embryos/group), i.e., control (untreated) and embryos treated with 5 µM, 10 µM, 50 µM, and 100 µM Pt-BP as well as 30 µM cisplatin. Both types of compounds were added externally to the medium and the embryos were incubated at 33 °C for the duration of the experiment. The embryos were assessed each day for phenotypic toxicity until 2 days post treatment (48 hpt) and imaged live in an Olympus MVX10 microscope.

[7] = set-up: method as in PMID 29037232; details: cited from earlier work

In the case of `NCCN.O=[N+]([O-])[O-].O=[N+]([O-])[O-].[Pt+2]` [Pt(NO3)2(en), reference compound], the “Pt-DNA adduct formation relative to total Pt uptake, kidney” value (genomic DNA) is reported as 4.8%, the “Pt-DNA adduct formation relative to total Pt uptake, spleen” value (genomic DNA) is reported as 9.8% and the “Pt uptake in hard tissue” value [1] is reported as 2.69 ± 0.26 %ID/g. The “Pt uptake in kidney” value [1] was 3.38 ± 0.28 %ID/g, the “Pt uptake in liver” value [1] was 1.54 ± 0.33 %ID/g and the “Pt uptake in spleen” value [1] was 0.38 ± 0.04 %ID/g. The “Pt accumulation in hard tissue (bone)” value ([1]; normalized for tissue weight) was ~ 1 ng Pt/mg tissue.
For `NCCN.O=[N+]([O-])[O-].O=[N+]([O-])[O-].[195Pt+2]` [^195mPt(NO3)2(en), reference compound], the “Pt not co-localized with Ca (Pt in soft tissue of the proximal tibia)” value ([2]; Fig. 4C) was 10%, the “percentage of Pt co-localized with calcium” value [2] was 37.3% and the “co-localization of Pt with Ca relative to that of 195mPt-BP” value ([2]; total amount of Pt, Fig. 4C) was 27%. The “uptake in bones (femur, tibia, humerus)” value ([3]; gamma counting after 3 days) was 1.4 ± 0.15 %ID/g, the uptake in kidneys ([3]; gamma counting after 3 days) was 3.95 ± 0.24 %ID/g and the uptake in liver ([3]; gamma counting after 3 days) was 3.22 ± 0.28 %ID/g. For the same molecule, the uptake in lungs ([3]; gamma counting after 3 days) was 1.08 ± 0.16 %ID/g, the uptake in spleen ([3]; gamma counting after 3 days) was 2.76 ± 0.67 %ID/g and the “hard-to-soft tissue uptake ratio” value ([4]; 1 h, excluding bladder uptake) was 1. The “hard-to-soft tissue uptake ratio” value ([4]; 24 h) was 1.2, the “hard-to-soft tissue uptake ratio” value ([4]; 72 h) was 1.2 and the “uptake in bone (hard tissue)” value ([4]; micro-SPECT/CT, 1 h p.i.) was 1.5 ± 0.1 %I.D/g. For the same molecule, the “uptake in soft tissue” value ([4]; micro-SPECT/CT, 1 h p.i.) was 1.43 ± 0.21 %I.D/g, the “body weight and behavioral changes” value [5] was “significant body weight loss” and the weight loss ([5]; humane end point, euthanized after 3 days) was “more than 20%”.
For `NCCN.NCCN.O.O.O.O=S(=O)([O-])O.[NH3+]CC1(O)P2(=O)[O][195Pt][O]P1(=O)[O][195Pt][O]2` (stereo not drawn) [^195mPt-BP], the “Pt not co-localized with Ca (Pt in soft tissue of the proximal tibia)” value ([2]; Fig. 4C) was 20%, the “accumulation of Pt in bone compared to 195mPt(NO3)2(en)” value ([2]; Fig. 4C) was “almost a fourfold increased accumulation” and the “percentage of Pt co-localized with calcium” value [2] was 73.5%. For the same molecule, the whole-body radioactivity [6] was 2 %ID, the uptake in femur ([3]; gamma counting after 7 days) was 3.1 ± 0.37 %ID/g and the uptake in humerus ([3]; gamma counting after 7 days) was 2.53 ± 0.33 %ID/g. For the same molecule, the uptake in kidneys ([3]; gamma counting after 7 days) was 0.43 ± 0.16 %ID/g, the “uptake in soft tissues except kidneys” value ([3]; gamma counting after 7 days) was < 0.11 %ID/g and the uptake in tibia ([3]; gamma counting after 7 days) was 2.86 ± 0.46 %ID/g. The “hard-to-soft tissue uptake ratio” value ([4]; 1 h, excluding bladder uptake) was 3.3, the “hard-to-soft tissue uptake ratio” value ([4]; 24 h) was 6 and the “hard-to-soft tissue uptake ratio” value ([4]; 72 h) was 6.7. The “uptake in bone (hard tissue)” value ([4]; micro-SPECT/CT, 1 h p.i.) was 1.8 ± 0.25 %I.D/g, the “uptake in soft tissue” value ([4]; micro-SPECT/CT, 1 h p.i.) was 0.93 ± 0.27 %I.D/g and the “uptake in soft tissue” value ([4]; micro-SPECT/CT, 24 h) was 0.18 ± 0.03 %I.D/g. The “uptake in hot spots in bone (ROI 75% of maximum intensity) compared to 195mPt(NO3)2(en)” value ([4]; micro-SPECT/CT, all time points) was “twofold increased uptake”, the “uptake in bone (hard tissue)” value ([4]; micro-SPECT/CT, from 24 h until day 7) was 1.0 ± 0.12 %I.D/g and the “body weight and behavioral changes” value [5] was “no behavioral or body changes were observed”. The Pt-based toxicity ([5]; over a period of 7 days) was “did not observe any Pt-based toxicity”.
In the case of `N.N.[Cl][Pt][Cl]` [^195mPt-cisplatin], the “inhibition of tumor growth, more effective compared to non-radioactive cisplatin” value (Ehrlich solid carcinoma) is given as 30%.
For `N.N.[Cl][Pt][Cl]` [cisplatin], the “visual inspection of kidneys based on size and shape” value (zebrafish embryos) is given as “apparent shrinkage”, the “rapid weight loss followed by recovery within a week” value ([7]; mice at maximum tolerated dose) is given as ~ 10% and the maximum tolerated dose ([7]; mice) is given as 6 mg/kg.
